EC50 data for 25 compounds are collected here from patent publication US12344610B2, “APOL1 inhibitors and methods of use” (Maze Therapeutics, Inc., priority 2022, dated 2025).

Structures are written as SMILES.

The subject of assay [1] is HEK293 clonal cell line overexpressing APOL1 G1. In words: APOL1 G1 HEK293 cell rescue assay (Example B3). Format: cell-based. To be noted: Homo sapiens, HEK293, HEK293 clonal line overexpressing APOL1 G1; geometric mean of at least 2 runs; † = single run; ¥ = concentration at 50% rescue estimated (no sigmoidal curve). The method, boiled down:
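Rescue of cell death caused by APOL1 G1 overexpression was measured in a clonal HEK293 line. Compounds were tested in duplicate on one plate, and EC50s were geometric means across at least two runs on different days. Some values are estimated 50%-rescue concentrations where curve fitting failed.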

Assay [2] has as its system Trypanosoma brucei Lister 427 VSG221 with APOL1 G2 recombinant protein. In words: APOL1 G2 trypanosome cell rescue assay (Example B5). The assay is classed as cell-based. To be noted: Trypanosoma brucei, 20 h, read-out: APOL1 G2 Trypanosome Rescue EC50, Trypanosoma brucei Lister 427 VSG221 with APOL1 G2 recombinant protein, 20 hours, CellTiter-Glo; geometric mean of at least 2 assay runs; † = single assay run. The method, boiled down:
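Viability read by CellTiter-Glo luminescence after 20 h co-incubation (37° C, 5% CO2) of 250 trypanosomes/well in modified HMI-9 with test compound (duplicate 11-point, 2-fold dilutions, 0.4% DMSO) and APOL1 protein, […]. Protein: mature residues 28-398, E. coli inclusion-body refolded, tag cleaved, in DDM.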
Background: In ATP-based viability assays light output follows the ATP content of the culture.

A word on the EC50: it is the concentration at which the effect is half-maximal. With `CC(C)n1ncc2cc(OCCN3CCC4(CC3)C(=O)Nc3ccc(Cl)cc34)ccc21` [Compound 16, 5-chloro-1′-(2-{[1-(propan-2-yl)-1H-indazol-5-yl]oxy}ethyl)-1,2-dihydrospiro[indole-3,4′-piperidin]-2-one], the EC50 in assay [1] is 295 nM; in assay [2], 110 nM.
Regarding `O=C1Nc2ccc(Cl)cc2C12CCN(CCOc1ccc(S(=O)(=O)[C@H]3C[C@@H](O)C3)cc1)CC2` [Compound 17, 5-chloro-1′-[2-(4-{[(cis)-3-hydroxycyclobutyl]sulfonyl}phenoxy)ethyl]-1,2-dihydrospiro[indole-3,4′-piperidin]-2-one], the concentration for a half-maximal effect (EC50) was 160 nM in assay [1] and 36.7 nM in assay [2].
For `O=C1CCc2cc(OCCN3CCC4(CC3)C(=O)Nc3ccc(Cl)cc34)ccc2N1C1COC1` [Compound 99, 5-chloro-1′-(2-{[1-(oxetan-3-yl)-2-oxo-1,2,3,4-tetrahydroquinolin-6-yl]oxy}ethyl)-1,2-dihydrospiro[indole-3,4′-piperidin]-2-one], the EC50 in assay [1] is 205 nM; in assay [2], 90.1 nM.
Consider `CS(=O)(=O)c1ccc(OCCN2CCC3(CC2)C(=O)Nc2ccc(C#N)cc23)cc1C(F)F` [Compound 100, 1′-{2-[3-(difluoromethyl)-4-methanesulfonylphenoxy]ethyl}-2-oxo-1,2-dihydrospiro[indole-3,4′-piperidine]-5-carbonitrile], for which the EC50 in assay [1] is 134 nM; in assay [2] it was 25.9 nM.
For the compound `CS(=O)(=O)C1(c2ccc(OCCN3CCC4(CC3)C(=O)Nc3ccc(C#N)cc34)cc2)CC1` [Compound 101, 1′-{2-[4-(1-methanesulfonylcyclopropyl)phenoxy]ethyl}-2-oxo-1,2-dihydrospiro[indole-3,4′-piperidine]-5-carbonitrile], the EC50 was 248 nM in assay [1] and 69.4 nM in assay [2].
With `CS(=O)(=O)C1(c2ccc(OCCN3CCC4(CC3)C(=O)Nc3ccc(Cl)cc34)cc2)CC1` [Compound 102, 5-chloro-1′-{2-[4-(1-methanesulfonylcyclopropyl)phenoxy]ethyl}-1,2-dihydrospiro[indole-3,4′-piperidin]-2-one], the EC50 in assay [1] was 111 nM; in assay [2] it was 18 nM.
Take `CN1c2ccc(OCCN3CCC4(CC3)C(=O)Nc3ccc(Cl)cc34)cc2CCS1(=O)=O` [Compound 103, 6-(2-{5-chloro-2-oxo-1,2-dihydrospiro[indole-3,4′-piperidin]-1′-yl}ethoxy)-1-methyl-3,4-dihydro-1H-2λ^6,1-benzothiazine-2,2-dione]: the half-maximal effective concentration (EC50) is 124 nM in assay [1] and 43.7 nM in assay [2].
For the compound `CN1c2ccc(OCCN3CCC4(CC3)C(=O)Nc3ccc(C#N)cc34)cc2CCS1(=O)=O` [Compound 104, 1′-{2-[(1-methyl-2,2-dioxo-3,4-dihydro-1H-2λ^6,1-benzothiazin-6-yl)oxy]ethyl}-2-oxo-1,2-dihydrospiro[indole-3,4′-piperidine]-5-carbonitrile], the EC50 was 356 nM in assay [1] and 184 nM in assay [2].
The corresponding values for `N#Cc1ccc2c(c1)C1(CCN(CCOc3ccc4c(c3)CCC(=O)N4CC(F)F)CC1)C(=O)N2` [Compound 105, 1′-(2-{[1-(2,2-difluoroethyl)-2-oxo-1,2,3,4-tetrahydroquinolin-6-yl]oxy}ethyl)-2-oxo-1,2-dihydrospiro[indole-3,4′-piperidine]-5-carbonitrile] are 175 nM and 75.2 nM.
Regarding `O=C1CCc2cc(OCCN3CCC4(CC3)C(=O)Nc3ccc(Cl)cc34)ccc2N1CC(F)F` [Compound 106, 5-chloro-1′-(2-{[1-(2,2-difluoroethyl)-2-oxo-1,2,3,4-tetrahydroquinolin-6-yl]oxy}ethyl)-1,2-dihydrospiro[indole-3,4′-piperidin]-2-one], the EC50 was 122 nM in assay [1] and 23.4 nM in assay [2].
As to `CS(=O)(=O)c1ccc(OCCN2CCC3(CC2)C(=O)Nc2ccc(C#N)cc23)cc1C(F)(F)F` [Compound 107, 1′-{2-[4-methanesulfonyl-3-(trifluoromethyl)phenoxy]ethyl}-2-oxo-1,2-dihydrospiro[indole-3,4′-piperidine]-5-carbonitrile], the EC50 is 120 nM in assay [1] and 23 nM in assay [2].
On to `CS(=O)(=O)c1ccc(OCCN2CCC3(CC2)C(=O)Nc2ccc(Cl)cc23)cc1C(F)(F)F` [Compound 108, 5-chloro-1′-{2-[4-methanesulfonyl-3-(trifluoromethyl)phenoxy]ethyl}-1,2-dihydrospiro[indole-3,4′-piperidin]-2-one], for which the EC50 was 49.7 nM in assay [1] and 9.22 nM in assay [2].
For `CS(=O)(=O)C1(c2ccc(OCCN3CCC4(CC3)C(=O)Nc3ccc(C#N)cc34)cc2)COC1` [Compound 109, 1′-{2-[4-(3-methanesulfonyloxetan-3-yl)phenoxy]ethyl}-2-oxo-1,2-dihydrospiro[indole-3,4′-piperidine]-5-carbonitrile], in that order: 321 nM and 98 nM.
Take `Cc1cc(OCCN2CCC3(CC2)C(=O)Nc2ccc(Cl)cc23)ccc1S(C)(=O)=O` [Compound 110, 5-chloro-1′-[2-(4-methanesulfonyl-3-methylphenoxy)ethyl]-1,2-dihydrospiro[indole-3,4′-piperidin]-2-one]: the EC50 in assay [1] was 100 nM; in assay [2] it was 26.1 nM.
In the case of `Cc1cc(OCCN2CCC3(CC2)C(=O)Nc2ccc(C#N)cc23)ccc1S(C)(=O)=O` [Compound 111, 1′-[2-(4-methanesulfonyl-3-methylphenoxy)ethyl]-2-oxo-1,2-dihydrospiro[indole-3,4′-piperidine]-5-carbonitrile], the EC50 in assay [1] was 246 nM; in assay [2], 105 nM.
In the case of `O=C1Nc2ccc(Cl)cc2C12CCN(CCOc1ccc(S(=O)(=O)C(F)F)cc1)CC2` [Compound 112, 5-chloro-1′-[2-(4-difluoromethanesulfonylphenoxy)ethyl]-1,2-dihydrospiro[indole-3,4′-piperidin]-2-one], the concentration giving a half-maximal response (EC50) in assay [1] is 77.5 nM; in assay [2], 18.3 nM.
Take `N#Cc1ccc2c(c1)C1(CCN(CCOc3ccc(S(=O)(=O)C(F)F)cc3)CC1)C(=O)N2` [Compound 113, 1′-[2-(4-difluoromethanesulfonylphenoxy)ethyl]-2-oxo-1,2-dihydrospiro[indole-3,4′-piperidine]-5-carbonitrile]: the EC50 in assay [1] was 176 nM; in assay [2], 46.7 nM.
Regarding `O=C1CCc2cc(OCCN3CCC4(CC3)C(=O)Nc3ccc(Cl)cc34)ccc2N1[C@H]1C[C@@H](O)C1` [Compound 114, 5-chloro-1′-[2-({2-oxo-1-[(cis)-3-hydroxycyclobutyl]-1,2,3,4-tetrahydroquinolin-6-yl}oxy)ethyl]-1,2-dihydrospiro[indole-3,4′-piperidin]-2-one], the EC50 in assay [1] is 128 nM; in assay [2], 38 nM.
Consider `CN(c1c(F)cc(OCCN2CCC3(CC2)C(=O)Nc2ccc(Cl)cc23)cc1F)S(C)(=O)=O` [Compound 127, N-[4-(2-{5-chloro-2-oxo-1,2-dihydrospiro[indole-3,4′-piperidin]-1′-yl}ethoxy)-2,6-difluorophenyl]-N-methylmethanesulfonamide], for which the EC50 in assay [1] was 61 nM; in assay [2] it was 29.4 nM.
On to `CN(c1c(F)cc(OCCN2CCC3(CC2)C(=O)Nc2ccc(C#N)cc23)cc1F)S(C)(=O)=O` [Compound 128, N-[4-(2-{5-cyano-2-oxo-1,2-dihydrospiro[indole-3,4′-piperidin]-1′-yl}ethoxy)-2,6-difluorophenyl]-N-methylmethanesulfonamide], for which the EC50 in assay [1] is 158 nM; in assay [2], 133 nM.
`Cc1cc(OCCN2CCC3(CC2)C(=O)Nc2ccc(Cl)cc23)cc(C)c1S(C)(=O)=O` [Compound 129, 5-chloro-1′-[2-(4-methanesulfonyl-3,5-dimethylphenoxy)ethyl]-1,2-dihydrospiro[indole-3,4′-piperidin]-2-one]: the EC50 in assay [1] was 72.8 nM; in assay [2], 22.2 nM.
Take `Cn1c(=O)oc2cc(OCCN3CCC4(CC3)C(=O)Nc3ccc(Cl)cc34)ccc21` [Compound 131, 5-chloro-1′-{2-[(3-methyl-2-oxo-2,3-dihydro-1,3-benzoxazol-6-yl)oxy]ethyl}-1,2-dihydrospiro[indole-3,4′-piperidin]-2-one]: the EC50 in assay [1] was 186 nM; in assay [2] it was 47.8 nM.
With `Cn1c(=O)oc2cc(OCCN3CCC4(CC3)C(=O)Nc3ccc(C#N)cc34)ccc21` [Compound 132, 1′-{2-[(3-methyl-2-oxo-2,3-dihydro-1,3-benzoxazol-6-yl)oxy]ethyl}-2-oxo-1,2-dihydrospiro[indole-3,4′-piperidine]-5-carbonitrile], the concentration giving a half-maximal response (EC50) in assay [1] was 685 nM; in assay [2], 180 nM.
Take `CS(=O)(=O)C1(c2c(F)cc(OCCN3CCC4(CC3)C(=O)Nc3ccc(Cl)cc34)cc2F)COC1` [Compound 136, 5-chloro-1′-{2-[3,5-difluoro-4-(3-methanesulfonyloxetan-3-yl)phenoxy]ethyl}-1,2-dihydrospiro[indole-3,4′-piperidin]-2-one]: the half-maximal effective concentration (EC50) in assay [1] is 49.4 nM; in assay [2], 14.3 nM.
Take `CC(c1c(F)cc(OCCN2CCC3(CC2)C(=O)Nc2ccc(C#N)cc23)cc1F)S(C)(=O)=O` (centres unmarked) [Compound 137, 1′-{2-[3,5-difluoro-4-(1-methanesulfonylethyl)phenoxy]ethyl}-2-oxo-1,2-dihydrospiro[indole-3,4′-piperidine]-5-carbonitrile]: the 50% effective concentration (EC50) is 249 nM in assay [1] and 119 nM in assay [2].
